From ChEMBL document CHEMBL4507290 (2021)

Legend:
[1] = target: AP2-associated protein kinase 1 (Homo sapiens) (UniProt Q2M2I8); conditions: Compound concentration 1000.0 nM
[2] = target: Cytoplasmic tyrosine-protein kinase BMX (Homo sapiens) (UniProt P51813); conditions: Compound concentration 1000.0 nM
[3] = target: Protein-tyrosine kinase 6 (Homo sapiens) (UniProt Q13882); conditions: Compound concentration 1000.0 nM
[4] = target: Calcium/calmodulin-dependent protein kinase type 1G (Homo sapiens) (UniProt Q96NX5); conditions: Compound concentration 1000.0 nM
[5] = target: Peripheral plasma membrane protein CASK (Homo sapiens) (UniProt O14936); conditions: Compound concentration 1000.0 nM
[6] = target: Cyclin-dependent kinase 11A (Homo sapiens) (UniProt Q9UQ88); conditions: Compound concentration 1000.0 nM
[7] = target: Cyclin-dependent kinase 9 (Homo sapiens) (UniProt P50750); conditions: Compound concentration 1000.0 nM
[8] = target: Dual specificity protein kinase CLK4 (Homo sapiens) (UniProt Q9HAZ1); conditions: Compound concentration 1000.0 nM
[9] = target: Casein kinase I isoform gamma-3 (Homo sapiens) (UniProt Q9Y6M4); conditions: Compound concentration 1000.0 nM
[10] = target: Death-associated protein kinase 1 (Homo sapiens) (UniProt P53355); conditions: Compound concentration 1000.0 nM
[11] = target: Serine/threonine-protein kinase DCLK3 (Homo sapiens) (UniProt Q9C098); conditions: Compound concentration 1000.0 nM
[12] = test system: Epidermal growth factor receptor (Homo sapiens), P00533 [G719S]; conditions: Compound concentration 1000.0 nM
[13] = target: Ephrin type-B receptor 2 (Homo sapiens) (UniProt P29323); conditions: Compound concentration 1000.0 nM
[14] = target: Ephrin type-B receptor 4 (Homo sapiens) (UniProt P54760); conditions: Compound concentration 1000.0 nM
[15] = target: Mitogen-activated protein kinase 6 (Homo sapiens) (UniProt Q16659); conditions: Compound concentration 1000.0 nM
[16] = target: Receptor-type tyrosine-protein kinase FLT3 (Homo sapiens) (UniProt P36888); conditions: Compound concentration 1000.0 nM
[17] = target: Tyrosine-protein kinase Fyn (Homo sapiens) (UniProt P06241); conditions: Compound concentration 1000.0 nM
[18] = target: Beta-adrenergic receptor kinase 1 (Homo sapiens) (UniProt P25098); conditions: Compound concentration 1000.0 nM
[19] = target: Homeodomain-interacting protein kinase 1 (Homo sapiens) (UniProt Q86Z02); conditions: Compound concentration 1000.0 nM
[20] = target: Mitogen-activated protein kinase kinase kinase kinase 1 (Homo sapiens) (UniProt Q92918); conditions: Compound concentration 1000.0 nM
[21] = target: Tyrosine-protein kinase JAK1 (Homo sapiens) (UniProt P23458); conditions: Compound concentration 1000.0 nM
[22] = target: Tyrosine-protein kinase Lck (Homo sapiens) (UniProt P06239); conditions: Compound concentration 1000.0 nM
[23] = target: Mitogen-activated protein kinase kinase kinase 15 (Homo sapiens) (UniProt Q6ZN16); conditions: Compound concentration 1000.0 nM
[24] = target: Mitogen-activated protein kinase kinase kinase 2 (Homo sapiens) (UniProt Q9Y2U5); conditions: Compound concentration 1000.0 nM
[25] = target: Serine/threonine-protein kinase MARK2 (Homo sapiens) (UniProt Q7KZI7); conditions: Compound concentration 1000.0 nM
[26] = target: MAP/microtubule affinity-regulating kinase 3 (Homo sapiens) (UniProt P27448); conditions: Compound concentration 1000.0 nM
[27] = target: MAP kinase-interacting serine/threonine-protein kinase 2 (Homo sapiens) (UniProt Q9HBH9); conditions: Compound concentration 1000.0 nM
[28] = target: Mitogen-activated protein kinase kinase kinase 9 (Homo sapiens) (UniProt P80192); conditions: Compound concentration 1000.0 nM
[29] = target: Serine/threonine-protein kinase Nek4 (Homo sapiens) (UniProt P51957); conditions: Compound concentration 1000.0 nM
[30] = target: Serine/threonine-protein kinase PAK 2 (Homo sapiens) (UniProt Q13177); conditions: Compound concentration 1000.0 nM
[31] = test system: Phosphatidylinositol 4,5-bisphosphate 3-kinase catalytic subunit alpha isoform (Homo sapiens), P42336 [Q546K]; conditions: Compound concentration 1000.0 nM
[32] = target: Serine/threonine-protein kinase PLK2 (Homo sapiens) (UniProt Q9NYY3); conditions: Compound concentration 1000.0 nM
[33] = target: Serine/threonine-protein kinase D1 (Homo sapiens) (UniProt Q15139); conditions: Compound concentration 1000.0 nM
[34] = target: Serine/threonine-protein kinase D2 (Homo sapiens) (UniProt Q9BZL6); conditions: Compound concentration 1000.0 nM
[35] = target: Receptor-interacting serine/threonine-protein kinase 2 (Homo sapiens) (UniProt O43353); conditions: Compound concentration 1000.0 nM
[36] = target: Receptor-interacting serine/threonine-protein kinase 4 (Homo sapiens) (UniProt P57078); conditions: Compound concentration 1000.0 nM
[37] = target: Rho-associated protein kinase 1 (Homo sapiens) (UniProt Q13464); conditions: Compound concentration 1000.0 nM
[38] = target: Ribosomal protein S6 kinase alpha-3 (Homo sapiens) (UniProt P51812); conditions: Compound concentration 1000.0 nM
[39] = target: Ribosomal protein S6 kinase beta-1 (Homo sapiens) (UniProt P23443); conditions: Compound concentration 1000.0 nM
[40] = target: NUAK family SNF1-like kinase 2 (Homo sapiens) (UniProt Q9H093); conditions: Compound concentration 1000.0 nM
[41] = target: STE20/SPS1-related proline-alanine-rich protein kinase (Homo sapiens) (UniProt Q9UEW8); conditions: Compound concentration 1000.0 nM
[42] = target: Transient receptor potential cation channel subfamily M member 6 (Homo sapiens) (UniProt Q9BX84); conditions: Compound concentration 1000.0 nM
[43] = target: 5-hydroxytryptamine receptor 2C (Homo sapiens) (UniProt P28335); conditions: Compound concentration 10.0 uM
[44] = target: D(1A) dopamine receptor (Homo sapiens) (UniProt P21728); conditions: Compound concentration 10.0 uM
[45] = target: Beta-3 adrenergic receptor (Homo sapiens) (UniProt P13945); conditions: Compound concentration 10.0 uM

Sequence of MAP/microtubule affinity-regulating kinase 3 (Homo sapiens) (P27448 whole entry, looked up): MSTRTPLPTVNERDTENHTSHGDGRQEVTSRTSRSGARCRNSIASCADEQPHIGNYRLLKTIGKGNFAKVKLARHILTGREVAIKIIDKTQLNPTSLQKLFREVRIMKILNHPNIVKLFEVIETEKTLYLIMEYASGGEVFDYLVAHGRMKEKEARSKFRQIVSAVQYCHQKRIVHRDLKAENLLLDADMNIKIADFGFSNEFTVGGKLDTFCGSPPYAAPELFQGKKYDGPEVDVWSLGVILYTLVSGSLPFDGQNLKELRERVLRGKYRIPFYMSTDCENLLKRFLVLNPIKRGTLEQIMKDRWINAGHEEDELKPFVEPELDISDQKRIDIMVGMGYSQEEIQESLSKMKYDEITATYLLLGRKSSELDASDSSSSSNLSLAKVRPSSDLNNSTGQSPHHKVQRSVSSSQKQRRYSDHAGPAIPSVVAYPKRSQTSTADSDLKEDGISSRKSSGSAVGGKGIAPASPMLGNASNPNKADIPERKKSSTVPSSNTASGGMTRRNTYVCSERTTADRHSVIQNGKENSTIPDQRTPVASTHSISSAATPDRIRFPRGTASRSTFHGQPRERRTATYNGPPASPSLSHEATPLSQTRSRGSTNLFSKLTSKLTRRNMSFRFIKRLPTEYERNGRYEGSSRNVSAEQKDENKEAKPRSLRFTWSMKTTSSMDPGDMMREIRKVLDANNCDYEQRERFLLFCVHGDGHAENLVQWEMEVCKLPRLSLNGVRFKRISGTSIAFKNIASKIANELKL
Sequence of D(1A) dopamine receptor (Homo sapiens) (P21728 whole entry): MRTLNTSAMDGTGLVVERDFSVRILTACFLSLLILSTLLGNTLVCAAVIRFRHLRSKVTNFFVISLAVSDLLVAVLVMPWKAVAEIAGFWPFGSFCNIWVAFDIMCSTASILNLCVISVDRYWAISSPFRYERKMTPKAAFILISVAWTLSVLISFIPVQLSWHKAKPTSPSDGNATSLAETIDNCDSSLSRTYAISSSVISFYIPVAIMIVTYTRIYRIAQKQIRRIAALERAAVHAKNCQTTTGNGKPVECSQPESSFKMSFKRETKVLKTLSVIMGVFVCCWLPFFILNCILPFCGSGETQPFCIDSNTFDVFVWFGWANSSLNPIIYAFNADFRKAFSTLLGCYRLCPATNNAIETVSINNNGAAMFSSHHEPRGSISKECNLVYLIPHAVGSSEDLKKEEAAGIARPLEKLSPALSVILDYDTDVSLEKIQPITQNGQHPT
Sequence of Mitogen-activated protein kinase kinase kinase 2 (Homo sapiens) (Q9Y2U5 whole entry): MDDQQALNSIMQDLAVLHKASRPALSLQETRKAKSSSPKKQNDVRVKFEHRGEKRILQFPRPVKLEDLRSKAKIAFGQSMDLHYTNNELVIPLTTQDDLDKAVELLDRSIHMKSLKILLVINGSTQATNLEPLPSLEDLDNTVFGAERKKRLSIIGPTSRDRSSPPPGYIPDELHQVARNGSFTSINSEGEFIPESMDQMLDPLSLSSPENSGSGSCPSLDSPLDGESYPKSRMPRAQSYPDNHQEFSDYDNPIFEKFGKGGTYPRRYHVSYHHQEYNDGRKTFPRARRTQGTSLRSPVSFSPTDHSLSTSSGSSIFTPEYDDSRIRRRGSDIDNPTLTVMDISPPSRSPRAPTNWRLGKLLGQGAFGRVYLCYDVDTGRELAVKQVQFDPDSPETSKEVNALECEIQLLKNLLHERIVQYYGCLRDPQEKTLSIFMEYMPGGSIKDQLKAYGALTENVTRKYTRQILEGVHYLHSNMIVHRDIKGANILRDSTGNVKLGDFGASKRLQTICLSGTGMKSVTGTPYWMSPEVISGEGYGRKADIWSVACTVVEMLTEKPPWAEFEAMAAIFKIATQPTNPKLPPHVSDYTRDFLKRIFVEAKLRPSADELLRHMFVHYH
Sequence of Peripheral plasma membrane protein CASK (Homo sapiens) (O14936 whole entry): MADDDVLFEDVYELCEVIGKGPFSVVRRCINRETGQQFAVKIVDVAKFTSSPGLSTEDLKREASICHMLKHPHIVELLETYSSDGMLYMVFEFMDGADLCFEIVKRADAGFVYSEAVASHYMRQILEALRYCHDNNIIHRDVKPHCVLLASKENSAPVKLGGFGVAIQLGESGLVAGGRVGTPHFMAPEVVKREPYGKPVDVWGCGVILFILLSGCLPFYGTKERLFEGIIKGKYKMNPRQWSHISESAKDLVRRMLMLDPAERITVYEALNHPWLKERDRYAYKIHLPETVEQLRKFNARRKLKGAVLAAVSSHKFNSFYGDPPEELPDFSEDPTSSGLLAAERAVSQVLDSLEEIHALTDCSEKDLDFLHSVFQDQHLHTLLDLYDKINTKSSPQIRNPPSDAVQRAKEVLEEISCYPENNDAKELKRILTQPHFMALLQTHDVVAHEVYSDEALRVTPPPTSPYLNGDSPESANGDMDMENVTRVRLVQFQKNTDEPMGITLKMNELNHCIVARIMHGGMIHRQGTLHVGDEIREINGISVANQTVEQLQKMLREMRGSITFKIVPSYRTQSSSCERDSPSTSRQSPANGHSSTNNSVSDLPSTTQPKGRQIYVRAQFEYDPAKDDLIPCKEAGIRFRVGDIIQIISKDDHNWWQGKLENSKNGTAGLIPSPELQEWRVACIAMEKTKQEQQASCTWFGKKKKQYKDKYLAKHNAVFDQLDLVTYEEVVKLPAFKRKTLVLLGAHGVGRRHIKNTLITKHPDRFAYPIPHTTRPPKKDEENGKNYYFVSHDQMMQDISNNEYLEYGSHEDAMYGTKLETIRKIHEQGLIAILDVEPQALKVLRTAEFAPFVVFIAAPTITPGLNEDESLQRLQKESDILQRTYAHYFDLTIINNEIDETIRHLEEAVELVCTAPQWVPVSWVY
Sequence of Beta-adrenergic receptor kinase 1 (Homo sapiens) (P25098 whole entry): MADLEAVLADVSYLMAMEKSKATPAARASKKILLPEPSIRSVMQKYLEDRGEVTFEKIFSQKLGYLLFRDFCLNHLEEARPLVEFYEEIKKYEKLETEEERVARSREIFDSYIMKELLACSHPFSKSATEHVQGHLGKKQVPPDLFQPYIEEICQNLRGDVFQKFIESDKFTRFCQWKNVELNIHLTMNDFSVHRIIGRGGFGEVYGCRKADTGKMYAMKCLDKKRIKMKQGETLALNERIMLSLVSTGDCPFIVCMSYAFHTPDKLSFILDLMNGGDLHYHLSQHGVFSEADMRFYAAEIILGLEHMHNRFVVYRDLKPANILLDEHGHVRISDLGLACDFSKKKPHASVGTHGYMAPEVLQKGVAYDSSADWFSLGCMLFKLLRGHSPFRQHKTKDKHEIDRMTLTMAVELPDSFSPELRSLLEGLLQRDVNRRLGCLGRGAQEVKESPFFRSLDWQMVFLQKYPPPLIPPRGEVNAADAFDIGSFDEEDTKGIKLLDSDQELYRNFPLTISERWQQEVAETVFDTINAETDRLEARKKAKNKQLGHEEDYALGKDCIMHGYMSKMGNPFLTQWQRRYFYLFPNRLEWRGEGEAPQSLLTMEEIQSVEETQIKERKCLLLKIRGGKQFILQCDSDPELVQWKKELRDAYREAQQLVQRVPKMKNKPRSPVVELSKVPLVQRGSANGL
Sequence of Serine/threonine-protein kinase PLK2 (Homo sapiens) (Q9NYY3 whole entry, looked up): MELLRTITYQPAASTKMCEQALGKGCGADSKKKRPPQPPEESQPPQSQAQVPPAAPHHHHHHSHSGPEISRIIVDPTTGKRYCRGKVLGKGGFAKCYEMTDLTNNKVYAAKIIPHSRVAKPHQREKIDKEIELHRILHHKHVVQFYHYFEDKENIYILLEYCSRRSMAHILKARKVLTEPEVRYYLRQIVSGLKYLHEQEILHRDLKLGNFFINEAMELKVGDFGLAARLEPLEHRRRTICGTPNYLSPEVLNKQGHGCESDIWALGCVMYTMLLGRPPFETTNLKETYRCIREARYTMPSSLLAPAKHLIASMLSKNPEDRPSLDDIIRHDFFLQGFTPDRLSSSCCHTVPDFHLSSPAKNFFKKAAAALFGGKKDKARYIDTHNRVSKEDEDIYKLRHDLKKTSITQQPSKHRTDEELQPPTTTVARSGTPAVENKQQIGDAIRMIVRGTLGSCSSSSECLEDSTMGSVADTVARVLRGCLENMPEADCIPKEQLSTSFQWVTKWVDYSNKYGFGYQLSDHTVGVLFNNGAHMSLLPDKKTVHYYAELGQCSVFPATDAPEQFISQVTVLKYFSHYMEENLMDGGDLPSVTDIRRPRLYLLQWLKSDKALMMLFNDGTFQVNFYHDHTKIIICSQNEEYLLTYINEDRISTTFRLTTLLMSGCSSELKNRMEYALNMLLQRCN
Sequence of Receptor-interacting serine/threonine-protein kinase 4 (Homo sapiens) (P57078 whole entry): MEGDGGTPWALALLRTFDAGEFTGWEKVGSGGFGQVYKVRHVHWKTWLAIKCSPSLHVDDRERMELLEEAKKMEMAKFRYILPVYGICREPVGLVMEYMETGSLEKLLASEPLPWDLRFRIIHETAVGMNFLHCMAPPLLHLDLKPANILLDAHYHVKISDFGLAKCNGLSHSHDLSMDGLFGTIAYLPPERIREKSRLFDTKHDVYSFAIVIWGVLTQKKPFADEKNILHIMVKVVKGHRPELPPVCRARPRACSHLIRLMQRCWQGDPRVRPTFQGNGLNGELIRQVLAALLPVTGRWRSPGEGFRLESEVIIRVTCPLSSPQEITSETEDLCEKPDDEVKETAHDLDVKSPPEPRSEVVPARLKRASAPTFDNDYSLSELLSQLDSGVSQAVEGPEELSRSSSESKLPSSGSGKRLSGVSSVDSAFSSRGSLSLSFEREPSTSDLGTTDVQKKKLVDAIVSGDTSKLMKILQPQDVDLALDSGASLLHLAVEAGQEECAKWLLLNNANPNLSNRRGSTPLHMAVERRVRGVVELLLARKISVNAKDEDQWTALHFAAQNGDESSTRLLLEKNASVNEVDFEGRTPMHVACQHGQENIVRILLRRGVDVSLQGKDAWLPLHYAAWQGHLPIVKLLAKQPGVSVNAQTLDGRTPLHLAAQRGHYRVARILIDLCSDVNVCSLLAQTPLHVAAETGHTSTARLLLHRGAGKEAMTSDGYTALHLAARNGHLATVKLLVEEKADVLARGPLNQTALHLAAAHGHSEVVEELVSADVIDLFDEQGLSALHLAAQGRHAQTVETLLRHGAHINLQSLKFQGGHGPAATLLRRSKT

CN([C@@H]1CCc2c(CC(=O)O)c3cc(S(C)(=O)=O)ccc3n2C1)S(=O)(=O)c1ccc(F)cc1
residual activity [1]: 100%
residual activity [2]: 100%
residual activity [3]: 92%
residual activity [4]: 100%
residual activity [5]: 80%
residual activity [6]: 100%
residual activity [7]: 100%
residual activity [8]: 100%
residual activity [9]: 100%
residual activity [10]: 100%
residual activity [11]: 71%
residual activity [12]: 100%
residual activity [13]: 87%
residual activity [14]: 95%
residual activity [15]: 100%
residual activity [16]: 100%
residual activity [17]: 99%
residual activity [18]: 84%
residual activity [19]: 77%
residual activity [20]: 100%
residual activity [21]: 100%
residual activity [22]: 100%
residual activity [23]: 93%
residual activity [24]: 89%
residual activity [25]: 100%
residual activity [26]: 100%
residual activity [27]: 100%
residual activity [28]: 91%
residual activity [29]: 91%
residual activity [30]: 100%
residual activity [31]: 100%
residual activity [32]: 90%
residual activity [33]: 75%
residual activity [34]: 100%
residual activity [35]: 100%
residual activity [36]: 75%
residual activity [37]: 6%
residual activity [38]: 80%
residual activity [39]: 100%
residual activity [40]: 87%
residual activity [41]: 86%
residual activity [42]: 74%
inhibition [43]: 0.933%
inhibition [44]: -2.96%
inhibition [45]: 0.851%

CN([C@@H]1CCc2c(CC(=O)O)c3ccccc3n2C1)S(=O)(=O)c1ccc(F)cc1 [MK-7246]
residual activity [1]: 100%
residual activity [2]: 100%
residual activity [3]: 100%
residual activity [4]: 100%
residual activity [5]: 66%
residual activity [6]: 100%
residual activity [7]: 100%
residual activity [8]: 100%
residual activity [9]: 100%
residual activity [10]: 100%
residual activity [11]: 99%
residual activity [12]: 100%
residual activity [13]: 100%
residual activity [14]: 95%
residual activity [15]: 100%
residual activity [16]: 100%
residual activity [17]: 77%
residual activity [18]: 86%
residual activity [19]: 100%
residual activity [20]: 100%
residual activity [21]: 100%
residual activity [22]: 100%
residual activity [23]: 100%
residual activity [24]: 100%
residual activity [25]: 100%
residual activity [26]: 100%
residual activity [27]: 100%
residual activity [28]: 100%
residual activity [29]: 100%
residual activity [30]: 100%
residual activity [31]: 100%
residual activity [32]: 92%
residual activity [33]: 100%
residual activity [34]: 100%
residual activity [35]: 92%
residual activity [36]: 85%
residual activity [37]: 34%
residual activity [38]: 100%
residual activity [39]: 100%
residual activity [40]: 100%
residual activity [41]: 100%
residual activity [42]: 85%
inhibition [43]: -1.51%
inhibition [44]: 12.3%
inhibition [45]: 26.9%
